Columns and labels:
[1] = system: Escherichia coli (WP2-uvrA−); test: Bacterial mutagenicity test (Ames assay); conditions: E. coli WP2-uvrA−, with and without S9
Protocol: The test article was dissolved in 5% dextrose.
The pH was then adjusted to 3.53.
94720. […] (ATCC numbers: 29629 and 49979, respectively).
Genotype tests were performed.
Both endpoints serve as toxicity indicators in this assay.

[2] = system: Chinese Hamster Ovary Cells (CHO); test: In vitro chromosome aberration assay (incl. mitotic index); format: cell-based; conditions: for % MI 3 HRS + S9 / % MI 20 HRS / % MI: average mitotic index; for % MI: first column (time not given)

Q: How did the “mutagenicity (reversion rates)” value [1] turn out when `CN1CCCC1CCNC(=O)c1cn2c3c(c(N4CCC(c5cnccn5)C4)c(F)cc3c1=O)Oc1cc3ccccc3cc1-2` (stereo not shown) [CX-3543] was run?
A: The value was “non-mutagenic”.

Q: And the “% CA 3 HRS” value ([2]; CHO, 0.0016 mg/mL)?
A: The value was 6.0%.

Q: What about the “FI 3 HRS” value ([2]; CHO, 0.0016 mg/mL) of the same compound?
A: The value was 2.0.

Q: What about the “% CA 3 HRS + S9” value ([2]; CHO, 0.0016 mg/mL) of the same compound?
A: The value was 4.5%.

Q: What about the “FI 3 HRS + S9” value ([2]; CHO, 0.0016 mg/mL) of the same compound?
A: The value was 1.5.

Q: What about the “% CA 20 HRS” value ([2]; CHO, 0.0016 mg/mL) of the same compound?
A: Its value is 4.5%.

Q: What about the “FI 20 HRS” value ([2]; CHO, 0.0016 mg/mL) of the same compound?
A: Its value is 1.5.

Q: What about the “% CA 3 HRS” value ([2]; CHO, 0.005 mg/mL) of the same compound?
A: The value was 5.5%.

Q: What about the “FI 3 HRS” value ([2]; CHO, 0.005 mg/mL) of the same compound?
A: The value was 1.8.

Q: And the “% CA 3 HRS + S9” value ([2]; CHO, 0.005 mg/mL)?
A: The value was 8.4%.

Q: And the “FI 3 HRS + S9” value ([2]; CHO, 0.005 mg/mL)?
A: The value was 2.8.

Q: What about the “% CA 20 HRS” value ([2]; CHO, 0.005 mg/mL) of the same compound?
A: The value was 5.0%.

Q: And the “FI 20 HRS” value ([2]; CHO, 0.005 mg/mL)?
A: The value was 1.7.

Q: And the “% CA 3 HRS + S9” value ([2]; CHO, 0.016 mg/mL)?
A: The value was 9.0%.

Q: What about the “FI 3 HRS + S9” value ([2]; CHO, 0.016 mg/mL) of the same compound?
A: The value was 2.0.

Q: What about the “mutagenicity (chromosome aberrations)” value ([2]; CHO, 3 h, 3 h + S9, 20 h) of the same compound?
A: Its value is “not mutagenic”.

Q: And the “% MI 3 HRS + S9” value ([2]; 0.0016 mg/mL)?
A: The value was 12%.

Q: And the “% MI 20 HRS” value ([2]; 0.0016 mg/mL)?
A: The value was 8%.

Q: And the “% MI” value ([2]; 0.0016 mg/mL)?
A: The value was 6%.

Q: What about the “% MI 3 HRS + S9” value ([2]; 0.005 mg/mL) of the same compound?
A: Its value is 9%.

Q: What about the “% MI 20 HRS” value ([2]; 0.005 mg/mL) of the same compound?
A: Its value is 4%.

Q: And the “% MI” value ([2]; 0.005 mg/mL)?
A: Its value is 8%.

Q: And the “% MI 3 HRS + S9” value ([2]; 0.016 mg/mL)?
A: The value was 1%.

Q: And the “% MI 20 HRS” value ([2]; 0.016 mg/mL)?
A: The value was 0%.

Q: What about the “% MI” value ([2]; 0.016 mg/mL) of the same compound?
A: The value was 1%.

Q: What about the “% MI 3 HRS + S9” value ([2]; 0.05 mg/mL) of the same compound?
A: Its value is 0%.

Q: And the “% MI 20 HRS” value ([2]; 0.05 mg/mL)?
A: Its value is 0%.

Q: And the “% MI” value ([2]; 0.05 mg/mL)?
A: Its value is 0%.

Q: And the “% MI 3 HRS + S9” value ([2]; 0.16 mg/mL)?
A: The value was 0%.

Q: What about the “% MI 20 HRS” value ([2]; 0.16 mg/mL) of the same compound?
A: The value was 1%.

Q: What about the “% MI” value ([2]; 0.16 mg/mL) of the same compound?
A: Its value is 0%.

Q: What about the “% MI 3 HRS + S9” value ([2]; 0.5 mg/mL) of the same compound?
A: Its value is 0%.

Q: What about the “% MI 20 HRS” value ([2]; 0.5 mg/mL) of the same compound?
A: Its value is 0%.

Q: What about the “% MI” value ([2]; 0.5 mg/mL) of the same compound?
A: The value was 0%.
